Experimental data from patent US10227324B2 (Shanghai Haiyan Pharmaceutical Technology Co., Ltd., priority 2014, dated 2019).
Like-named read-outs stand apart in the source and are kept apart here.

Key:
[1] = target: T1, PI3K-α kinase (p110α/p85α) (Homo sapiens, UniProt P42336); assay: Determination of PI3K kinase activity (ADP Transcreener, fluorescence polarization); type: biochemical; conditions: ATP 10 μM
T1 construct: purchased Invitrogen PV4788
Experimental: (§1) The inhibition of PI3K kinase activity by the compound to be tested was determined by the following method. The working concentration of each component in the 25 μL enzyme reaction system was: p110α/p85α 3 ng (or p110β/p85α 60 ng, or p110δ/p85α 90 ng, or p110γ 100 ng), ATP 10 μM, PIP2: PS (Invitrogen PV5100) 30 μM and the DMSO concentration was 2% after addition of the compound to be tested.
(§2) At the time of the test, the compound to be tested was dissolved in dimethylsulfoxide (DMSO) according to the desired concentration of the experiment. The compound to be tested was gradiently diluted 3 times (0.00046-1 μM, 8 concentration points) with 10% DMSO. 5 μL of the compound to be tested was added to each well of a 96-well plate (Greiner 675076) in duplicate. […] 10 μL of ATP/PIP2: PS and 10 μL of the PI3K enzyme working solution were added to each well in a 96-well plate. The plate was shaken and mixed uniformly, and then incubated at 25° C. for 1 hour. At the same time, ADP and ATP (0.01 μM, 0.02 μM, 0.04 μM, 0.06 μM, 0.08 μM[…], 0.1 μM, 0.25 μM, 0.5 μM, 1 μM, 2 μM, 5 μM, 10 μM, 12 concentration points) were diluted with buffer to set the standard curve. After completion of the enzyme reaction, 25 μL of ADP assay solution (1% 100×ADP tracer, 0.79% ADP antibody and 10% 10× reaction stop solution) was added and incubated at 25° C. for 1 hour. Fluorescence polarization value [mP] of each well was measured with a Perkin Elmer Victor X5 Fluorescent Microplate. The ADP concentration [ADP] was calculated from the ADP/ATP standard curve and the IC50 values were calculated using the XLFit software.

NIH3T3 cells = assay: Cytotoxicity by MTT assay, NIH3T3; type: cell-based; conditions: Mus musculus, NIH3T3, 72 h, cytotoxicity class, read-out: NIH3T3 cell (IC50/nM)
Experimental: The MTT assay procedure and steps were carried out as well known to those skilled in the art, and all the reagents used in the methods were commercially available.
(§3) The cells in logarithmic growth phase were digested with 0.25% EDTA trypsin (Gibco, 25200-056) and resuspended in fresh medium. 90 μL of the cell suspension was inoculated into a 96-well cell culture plate (BD Faclon 353072) with a suitable cell density and cultured at 37° C. under 5% CO2. After the cells adhered, 10 μL of the test compound at different concentrations (0.0046-10 μM, 8 concentration points) was added and incubated for another 72 h. 10 μL of MTT (5 mg/mL PBS solution) (Sigma, M5655) was added to react for 4 h. The absorbance at 492 nm was measured by using Thermo Scientific Multiskan MK3 microplate reader and IC50 was calculated using XLFIT 5.0 software (UK IDBS).

MCF-7 cells = assay: Cell inhibitory activity detected by MTT assay, MCF-7; type: cell-based; conditions: Homo sapiens, MCF7, 72 h, read-out: MCF-7 cell (IC50/nM), cell growth inhibition
Experimental: as §3, with “The MTT assay procedure and steps were carried out as well known to those skilled in the art, and all the reagents used in the methods were commercially available. The cells” for “The cells”, “(UK IDBS). MCF-7 cell culture medium: DMEM medium (Hyclone SH30243.01B+10% FBS (Gibco 10099-141)” for “(UK IDBS).”

PI3K-γ kinase (p110γ) = target: T2, PI3K-γ kinase (p110γ) (Homo sapiens, UniProt P48736); assay: Determination of PI3K kinase activity (ADP Transcreener, fluorescence polarization); type: biochemical; conditions: Table 1; ATP 10 μM; read-out: PI3K-γ/nM (IC50 of inhibitory activity against PI3K kinase)
T2 construct: purchased Invitrogen PV4786
T2 sequence (P48736 whole entry): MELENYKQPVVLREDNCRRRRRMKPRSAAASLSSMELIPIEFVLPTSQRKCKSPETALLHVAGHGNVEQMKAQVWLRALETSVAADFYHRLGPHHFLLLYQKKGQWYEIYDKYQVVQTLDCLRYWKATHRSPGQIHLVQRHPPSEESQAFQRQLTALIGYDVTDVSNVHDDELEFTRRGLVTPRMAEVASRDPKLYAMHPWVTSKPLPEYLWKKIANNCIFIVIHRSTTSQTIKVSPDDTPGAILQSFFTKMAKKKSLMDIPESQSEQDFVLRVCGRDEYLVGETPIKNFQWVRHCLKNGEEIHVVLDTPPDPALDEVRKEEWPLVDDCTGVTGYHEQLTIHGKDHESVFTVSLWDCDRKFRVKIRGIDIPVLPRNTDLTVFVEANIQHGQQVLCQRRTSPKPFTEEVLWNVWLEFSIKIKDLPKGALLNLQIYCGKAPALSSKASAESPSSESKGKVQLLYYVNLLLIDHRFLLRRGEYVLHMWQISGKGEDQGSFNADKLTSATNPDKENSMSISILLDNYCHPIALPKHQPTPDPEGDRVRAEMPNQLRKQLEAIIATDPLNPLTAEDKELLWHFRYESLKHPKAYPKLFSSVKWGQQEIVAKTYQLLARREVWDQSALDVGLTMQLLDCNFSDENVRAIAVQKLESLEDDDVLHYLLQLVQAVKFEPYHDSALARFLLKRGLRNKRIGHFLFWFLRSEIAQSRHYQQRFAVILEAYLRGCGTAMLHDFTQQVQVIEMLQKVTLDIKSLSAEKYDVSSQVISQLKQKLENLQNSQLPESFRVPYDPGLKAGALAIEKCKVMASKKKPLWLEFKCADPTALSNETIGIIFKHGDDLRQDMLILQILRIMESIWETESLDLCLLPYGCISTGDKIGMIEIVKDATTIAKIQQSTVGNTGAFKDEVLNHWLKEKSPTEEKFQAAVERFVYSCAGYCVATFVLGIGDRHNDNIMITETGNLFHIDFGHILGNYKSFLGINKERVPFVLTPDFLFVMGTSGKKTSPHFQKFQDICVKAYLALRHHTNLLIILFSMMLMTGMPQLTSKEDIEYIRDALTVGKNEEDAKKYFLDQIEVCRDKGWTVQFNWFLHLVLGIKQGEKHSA
Experimental: The PI3K kinase used in the experiment: p110α/p85α (Invitrogen PV4788), p110β/p85α (Millipore 14-603), p110δ/p85α (Millipore 14-604M), and p110γ (Invitrogen PV4786).
as §1
as §2, with “duplicate. 2.5× buffer was prepared and 1 μL of DTT (Millipore 20-265) was added to each 800 μL of 2.5× buffer.” for “duplicate.”

T47D cells = assay: Cell inhibitory activity detected by MTT assay, T47D; type: cell-based; conditions: Homo sapiens, T47D, 72 h, read-out: T47D cell (IC50/nM), cell growth inhibition
Experimental: as §3, with “The MTT assay procedure and steps were carried out as well known to those skilled in the art, and all the reagents used in the methods were commercially available. The cells” for “The cells”, “(UK IDBS). T47D cell culture medium: RPMI-1640 medium (Hyclone SH30809.01B)+10% FBS (Gibco 10099-141)” for “(UK IDBS).”

[2] = target: T3, PI3K-β kinase (p110β/p85α) (Homo sapiens, UniProt P42338); assay: Determination of PI3K kinase activity (ADP Transcreener, fluorescence polarization); type: biochemical; conditions: Table 1; ATP 10 μM; read-out: PI3K-β/nM (IC50 of inhibitory activity against PI3K kinase)
T3 construct: purchased Millipore 14-603
T3 sequence (P42338 whole entry): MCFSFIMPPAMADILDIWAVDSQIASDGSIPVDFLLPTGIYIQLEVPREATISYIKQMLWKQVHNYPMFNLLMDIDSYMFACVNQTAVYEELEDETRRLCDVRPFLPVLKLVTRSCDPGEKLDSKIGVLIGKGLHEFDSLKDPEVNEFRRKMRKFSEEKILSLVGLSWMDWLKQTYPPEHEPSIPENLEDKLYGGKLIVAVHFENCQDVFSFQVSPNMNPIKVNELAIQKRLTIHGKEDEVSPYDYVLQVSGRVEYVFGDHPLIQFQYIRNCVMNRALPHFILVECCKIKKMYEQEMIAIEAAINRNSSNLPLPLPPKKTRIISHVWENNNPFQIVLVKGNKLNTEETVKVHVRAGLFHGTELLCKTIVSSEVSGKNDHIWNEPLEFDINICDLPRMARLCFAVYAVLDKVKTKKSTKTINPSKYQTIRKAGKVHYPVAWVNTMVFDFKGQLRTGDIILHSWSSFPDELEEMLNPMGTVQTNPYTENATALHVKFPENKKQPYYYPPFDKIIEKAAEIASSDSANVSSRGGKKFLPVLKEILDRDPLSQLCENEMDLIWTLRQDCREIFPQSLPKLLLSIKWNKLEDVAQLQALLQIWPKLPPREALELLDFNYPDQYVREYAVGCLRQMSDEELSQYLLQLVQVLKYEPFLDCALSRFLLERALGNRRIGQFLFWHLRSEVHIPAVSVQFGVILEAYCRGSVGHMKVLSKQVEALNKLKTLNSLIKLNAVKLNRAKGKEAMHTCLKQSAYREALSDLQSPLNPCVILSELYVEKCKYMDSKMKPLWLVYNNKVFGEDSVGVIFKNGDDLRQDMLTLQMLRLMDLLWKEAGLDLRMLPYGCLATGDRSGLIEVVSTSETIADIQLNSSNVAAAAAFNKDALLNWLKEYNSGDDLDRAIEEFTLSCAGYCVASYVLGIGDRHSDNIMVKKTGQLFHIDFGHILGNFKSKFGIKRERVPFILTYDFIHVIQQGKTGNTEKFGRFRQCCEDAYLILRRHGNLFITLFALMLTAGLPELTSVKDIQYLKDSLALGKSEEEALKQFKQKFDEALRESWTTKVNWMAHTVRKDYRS
T3 sequence (P27986 whole entry partner): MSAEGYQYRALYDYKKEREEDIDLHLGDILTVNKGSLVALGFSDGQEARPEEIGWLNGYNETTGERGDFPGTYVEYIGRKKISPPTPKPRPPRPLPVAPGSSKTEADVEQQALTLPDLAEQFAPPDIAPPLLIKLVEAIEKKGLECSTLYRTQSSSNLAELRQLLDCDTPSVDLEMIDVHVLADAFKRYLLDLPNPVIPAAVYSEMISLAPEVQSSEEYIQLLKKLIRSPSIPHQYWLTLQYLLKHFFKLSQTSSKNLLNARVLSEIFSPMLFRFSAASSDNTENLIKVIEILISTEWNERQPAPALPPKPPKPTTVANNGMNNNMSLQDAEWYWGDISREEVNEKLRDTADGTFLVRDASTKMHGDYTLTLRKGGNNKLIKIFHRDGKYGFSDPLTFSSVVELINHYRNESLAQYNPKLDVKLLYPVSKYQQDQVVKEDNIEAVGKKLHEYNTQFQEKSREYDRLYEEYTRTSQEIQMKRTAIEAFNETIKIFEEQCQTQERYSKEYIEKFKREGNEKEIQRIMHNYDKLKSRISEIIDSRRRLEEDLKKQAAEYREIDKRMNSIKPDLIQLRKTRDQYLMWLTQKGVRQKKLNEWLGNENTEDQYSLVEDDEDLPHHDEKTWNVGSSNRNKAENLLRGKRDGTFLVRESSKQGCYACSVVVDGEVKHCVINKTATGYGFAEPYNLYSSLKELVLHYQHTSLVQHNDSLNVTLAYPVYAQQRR
Experimental: as §1, §2

[3] = target: T4, PI3K-δ kinase (p110δ/p85α) (Homo sapiens, UniProt O00329); assay: as above; type: biochemical; conditions: Table 1; ATP 10 μM; read-out: PI3K-δ/nM (IC50 of inhibitory activity against PI3K kinase)
T4 construct: purchased Millipore 14-604M
T4 sequence (O00329 whole entry): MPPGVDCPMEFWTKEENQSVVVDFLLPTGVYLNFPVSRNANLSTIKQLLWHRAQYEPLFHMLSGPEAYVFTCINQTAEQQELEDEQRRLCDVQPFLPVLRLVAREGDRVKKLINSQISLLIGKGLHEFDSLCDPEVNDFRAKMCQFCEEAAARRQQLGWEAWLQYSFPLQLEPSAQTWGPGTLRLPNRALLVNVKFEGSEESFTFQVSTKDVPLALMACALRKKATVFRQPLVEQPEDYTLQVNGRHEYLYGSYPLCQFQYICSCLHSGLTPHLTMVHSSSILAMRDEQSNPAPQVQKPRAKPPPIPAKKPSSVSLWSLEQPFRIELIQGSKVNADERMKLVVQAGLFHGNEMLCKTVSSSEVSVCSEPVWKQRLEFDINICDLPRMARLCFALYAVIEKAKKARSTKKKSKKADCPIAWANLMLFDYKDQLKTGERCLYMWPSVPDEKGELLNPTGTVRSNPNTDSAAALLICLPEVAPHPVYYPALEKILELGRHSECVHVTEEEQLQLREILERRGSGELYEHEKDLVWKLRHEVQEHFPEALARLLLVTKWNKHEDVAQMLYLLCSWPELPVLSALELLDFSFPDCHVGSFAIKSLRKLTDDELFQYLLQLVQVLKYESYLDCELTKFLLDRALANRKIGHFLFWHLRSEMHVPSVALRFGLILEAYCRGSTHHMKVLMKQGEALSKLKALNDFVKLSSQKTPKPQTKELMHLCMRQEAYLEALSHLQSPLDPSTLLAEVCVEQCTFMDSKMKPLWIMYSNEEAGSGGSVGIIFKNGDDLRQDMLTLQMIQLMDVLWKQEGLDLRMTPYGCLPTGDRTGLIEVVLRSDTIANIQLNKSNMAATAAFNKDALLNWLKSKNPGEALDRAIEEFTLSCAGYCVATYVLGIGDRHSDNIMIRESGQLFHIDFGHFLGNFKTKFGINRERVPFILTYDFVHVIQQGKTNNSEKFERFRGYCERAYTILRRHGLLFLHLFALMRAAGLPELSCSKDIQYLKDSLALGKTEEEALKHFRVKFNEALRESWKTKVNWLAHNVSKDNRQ
T4 sequence (P27986 whole entry partner): as the sequence (P27986 whole entry partner) above
Experimental: as §1, §2

[4] = Table 2, read-out: PI3K-α/nM (IC50 of inhibitory activity against PI3K-α kinase)
[5] = Table 1, read-out: PI3K-α/nM (IC50 of inhibitory activity against PI3K kinase)

T1 sequence (P42336 whole entry): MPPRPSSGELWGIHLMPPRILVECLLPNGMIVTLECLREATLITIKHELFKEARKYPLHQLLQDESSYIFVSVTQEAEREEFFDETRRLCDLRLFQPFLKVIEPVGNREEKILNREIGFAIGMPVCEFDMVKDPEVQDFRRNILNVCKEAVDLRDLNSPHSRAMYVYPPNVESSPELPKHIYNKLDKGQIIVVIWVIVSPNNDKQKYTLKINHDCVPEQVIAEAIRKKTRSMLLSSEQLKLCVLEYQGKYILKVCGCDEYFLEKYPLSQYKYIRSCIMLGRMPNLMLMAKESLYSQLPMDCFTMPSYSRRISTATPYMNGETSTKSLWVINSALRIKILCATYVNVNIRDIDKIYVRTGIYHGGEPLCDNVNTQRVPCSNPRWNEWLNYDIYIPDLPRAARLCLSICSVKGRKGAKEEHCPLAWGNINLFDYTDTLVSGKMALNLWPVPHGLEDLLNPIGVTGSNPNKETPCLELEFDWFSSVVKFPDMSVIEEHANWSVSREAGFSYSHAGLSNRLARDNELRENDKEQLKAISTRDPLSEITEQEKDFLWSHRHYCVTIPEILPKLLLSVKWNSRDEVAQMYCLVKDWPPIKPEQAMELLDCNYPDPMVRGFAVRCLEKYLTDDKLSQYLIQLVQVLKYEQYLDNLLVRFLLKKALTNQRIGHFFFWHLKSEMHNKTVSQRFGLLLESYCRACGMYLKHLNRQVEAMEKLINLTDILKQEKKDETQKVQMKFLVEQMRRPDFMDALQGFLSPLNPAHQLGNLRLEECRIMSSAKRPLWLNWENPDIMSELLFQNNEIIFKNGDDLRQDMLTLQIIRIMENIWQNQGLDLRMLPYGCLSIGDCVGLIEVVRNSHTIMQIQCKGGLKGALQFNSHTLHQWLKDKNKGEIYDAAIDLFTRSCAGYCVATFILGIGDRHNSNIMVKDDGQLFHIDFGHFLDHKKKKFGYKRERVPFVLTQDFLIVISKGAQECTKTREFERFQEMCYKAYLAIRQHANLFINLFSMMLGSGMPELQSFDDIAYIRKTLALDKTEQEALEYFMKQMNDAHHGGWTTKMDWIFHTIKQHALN
T1 sequence (P27986 whole entry partner): as the sequence (P27986 whole entry partner) above

SMILES	IC50 [1, 4]	IC50 (NIH3T3 cells)	IC50 (MCF-7 cells)	IC50 [1, 5]	IC50 (PI3K-γ kinase (p110γ))	IC50 (T47D cells)	IC50 [2]	IC50 [3]
Nc1cc(C(F)(F)F)c(-c2cc(C3(C(=O)N4CCOCC4)CC3)nc(N3CCOCC3)n2)cn1 [Compound S-3, (1-(6-(6-amino-4-(trifluoromethyl)pyridin-3-yl)-2-morpholinopyrimidin-4-yl)cyclopropyl)(morpholino)ketone]	280 nM	> 10000 nM						
C[C@H]1COCCN1c1nc(-c2cnc(N)cc2C(F)(F)F)cc(C2(S(C)(=O)=O)CC2)n1 [Compound S-6]		1000 to 3000 nM	112 nM	16 nM	164 nM	129 nM		
CN(C1(c2cc(-c3cnc(N)cc3C(F)(F)F)nc(N3CCOCC3)n2)CC1)S(C)(=O)=O [Compound S-14, N-(1-(6-(6-amino-4-(trifluoromethyl)pyridin-3-yl)-2-morpholinopyrimidin-4-yl)cyclopropyl)-N-methylmethanesulfonamide]		1000 to 3000 nM	267 nM	13 nM		278 nM	1120 nM	
CC(C)S(=O)(=O)C(C)(C)c1cc(-c2cnc(N)cc2C(F)(F)F)nc(N2CCOCC2)n1 [Compound S-22]		1000 to 3000 nM		55 nM	2120 nM		1540 nM	491 nM
CS(=O)(=O)NC1(c2cc(-c3cnc(N)cc3C(F)(F)F)nc(N3CCOCC3)n2)CC1 [Compound S-24, N-(1-(6-(6-amino-4-(trifluoromethyl)pyridin-3-yl)-2-morpholinopyrimidin-4-yl)cyclopropyl)methanesulfon amide]		5000 to 10000 nM		10 nM	291 nM	305 nM	376 nM	85 nM
Nc1cc(C(F)(F)F)c(-c2cc(C3(S(=O)(=O)c4ccccc4)CC3)nc(N3CCOCC3)n2)cn1 [Compound S-25]		1000 to 3000 nM		26 nM	1930 nM	324 nM	217 nM	67 nM
CC(=O)NC1(c2cc(-c3cnc(N)cc3C(F)(F)F)nc(N3CCOCC3)n2)CC1 [Compound S-26, N-(1-(6-(6-amino-4-(trifluoromethyl)pyridin-3-yl)-2-morpholinopyrimidin-4-yl)cyclopropyl)acetamide]	390 nM	> 10000 nM						
CCS(=O)(=O)C(C)(C)c1cc(-c2cnc(N)cc2C(F)(F)F)nc(N2CCOCC2)n1 [Compound S-29]		1000 to 3000 nM			256 nM		1740 nM	612 nM
CS(=O)(=O)C1(c2cc(-c3cnc(N)c(C(F)(F)F)c3)nc(N3CCOCC3)n2)CC1 [Compound S-44, 5-(6-(1-(methylsulfonyl)cyclopropyl)-2-morpholinopyrimidin-4-yl)-3-(trifluoromethyl)pyridin-2-amine]	858 nM	1000 to 3000 nM						
CS(=O)(=O)C(F)c1cc(-c2cnc(N)cc2C(F)(F)F)nc(N2CCOCC2)n1 (stereo not shown) [Compound S-52, 5-(6-(fluoro(methylsulfonyl)methyl)-2-morpholinopyrimidin-4-yl)-4-(trifluoromethyl)pyridin-2-amine]		3000 to 5000 nM		18 nM	914 nM		2780 nM	336 nM
CS(=O)(=O)C(F)(F)c1cc(-c2cnc(N)cc2C(F)(F)F)nc(N2CCOCC2)n1 [Compound S-53]		1000 to 3000 nM	408 nM	33 nM	287 nM		1550 nM	516 nM
Nc1cc(C(F)(F)F)c(-c2cc(C3(S(=O)(=O)c4cccc(F)c4)CC3)nc(N3CCOCC3)n2)cn1 [Compound S-57, 5-(6-(1-(3-fluorophenylsulfonyl)cyclopropyl)-2-morpholinopyrimidin-4-yl)-4-(trifluoromethyl)pyridin-2-amine]		1000 to 3000 nM	286 nM	18 nM	236 nM	242 nM	284 nM	62 nM
